Reference: patent US4970199A, “Steroidal glycolipids as host resistance stimulators against viral infection” (priority 1989, dated 1990)
Entries after “also recorded” stand apart in the source; their conditions may differ.

Legend:
[1] = cited from earlier work
HIV [2] = conditions: cited from earlier work
[3] = cited from earlier work; remark: listed apart in the source
[4] = tested on: Mycobacterium avium-intracellulare; conditions: human, in vivo; cited from earlier work
HIV [5] = conditions: clinical trials; cited from earlier work
[6] = tested on: Herpes Simplex Virus-1 (HSV1); test: Antiviral experiment in mice infected IP with Herpes Simplex Virus-1; type: in vivo, HSV1 (Schloser), in ICR mice
Procedure: An antiviral experiment was conducted to compare treatment with 6-(5-Cholesten-3β-yloxy)hexyl 1-thio-β-D-mannopyranoside (Example 2) in mice infected IP with Herpes Simplex Virus-1 (HSV1) immediately before (post treatment) or after 5 days of treatment (pretreatment).
Ten mice (ICR, 20 gm, mixed sexes) were pretreated by SC injection of a 0.1 mL suspension of test compound twice a day for 4 days. On day 5, the mice were injected IP with 0.5 mL solution of HSV1 (Schloser, 10-5). The post treatment group was infected with HSV1 prior to administration of test compound. Day of death from time of infection with HSV1 was recorded for each mouse and average day of death per treatment group was calculated.

Pseudomonas aeruginosa = test: Stimulation of host resistance: protection of cyclophosphamide-immunocompromised mice from Pseudomonas aeruginosa infection; type: in vivo, Pseudomonas aeruginosa (Immunotype 1), in CF1 female mice; conditions: Table 3, CY-treated mice, dose not printed in table (initial test dose 40 mg per kg)
Procedure: Groups of 15-20 CF1 female mice (Charles River Breeding, Cambridge, Mass.) weighing 22-28 gm were injected intraperitoneally (i.p.) with cyclophosphamide (Cytoxan; CY) at 250 mg per kg body weight. One to two hours later they were typically injected again with the test material by the route specified. Four days later, the mice were divided into groups of five, each of which were injected i.p. with a different dilution of a suspension of Pseudomonas aeruginosa (Immunotype 1). The number of survivors was determined periodically and an estimate was made of the number of CFU of Pseudomonas organisms necessary to cause 50% lethality by the cumulative method of L. J. Reed and H. Muench (Am. J. Hygiene 27 (1938) 493-497). A protective index (P.I.) was defined as the LD50 for the mice receiving cyclophosphamide and the test compound divided by the LD50 for the mice receiving cyclophosphamide alone. All control mice were injected with aqueous vehicle in the same route and schedule as the test animals.
MATERIALS. All compounds for dosing were suspended in a sterile medium referred to as "aqueous vehicle" which contains 0.9% sodium chloride, 0.5% carboxymethyl cellulose, 0.4% Tween 80, and 0.9% benzyl alcohol unless otherwise stated. Test materials were evaluated via subcutaneous (s.c.), i.p., intramuscular (i.m.), orally (p.o.). and intravenous (i.v.) routes of administration. […]

[7] = tested on: human immunodeficiency virus (HIV); conditions: cited from earlier work
[8] = tested on: reverse transcriptase in several retroviruses; conditions: in vitro; cited from earlier work
Kaposi's sarcoma = conditions: in vivo; cited from earlier work

Compound: Cc1cn([C@H]2C[C@H](N=[N+]=[N-])[C@@H](CO)O2)c(=O)[nH]c1=O [AZT, 3'-azido-3'-deoxythymidine]
- toxicity ([1]; in vivo): some toxicity, with anemia and headaches
- prolonging lives of patients with AIDS or ARC (HIV [2]; human, in vivo): show promise in prolonging lives of patients with AIDS or AIDS-related complex (ARC)
- half-life in the body ([3]; in vivo): relatively short half-life in the body
- oral absorption ([3]; oral): Well absorbed orally

Compound: CO[C@H]1/C=C/O[C@@]2(C)Oc3c(C)c(O)c4c(c3C2=O)C2=NC3(CCN(CC(C)C)CC3)NC2=C(NC(=O)/C(C)=C\C=C\[C@H](C)[C@H](O)[C@@H](C)[C@@H](O)[C@@H](C)[C@H](OC(C)=O)[C@@H]1C)C4=O [Ansamycin, rifabutin]
- efficacy in AIDS patients with opportunistic infection [4]: some efficacy in treating AIDS patients with an opportunistic infection

Compound: CC(C)(N1CC1C#N)N1CC1C(N)=O (stereo not drawn) [Azimexon]
- toxic effect ([1]; early trial, disappeared when treatment ceased): only toxic effect was mild hemolysis
- symptoms and immune function (HIV [2]; early trial, ARC and AIDS patients): improvements in symptoms and immune function in patients with ARC but not AIDS

Compound: CC(C)(S)[C@@H](N)C(=O)O [D-Penicillamine, 3-mercapto-D-valine]
- HIV reproduction / viral replication in patients (HIV [5]): Inhibits HIV reproduction in humans; also recorded: suppressed the virus

Compound: CC(C)CCC[C@@H](C)[C@H]1CC[C@H]2[C@@H]3CC=C4C[C@@H](OCCCCCCS[C@@H]5O[C@H](CO)[C@@H](O)[C@H](O)[C@@H]5O)CC[C@]4(C)[C@H]3CC[C@]12C [Example 2, 6-(5-Cholesten-3β-yloxy)hexyl 1-thio-β-D-mannopyranoside]
- protection from fatal viral infection over placebo treated animals, by day of death ([6]; 50 mg/kg twice a day for four days): statistically enhanced protection from fatal viral infection over placebo treated animals
- protection of pretreated mice over the post treatment group ([6]; pretreatment vs post treatment): statistically enhanced protection over the post treatment group

Compound: CC[C@H](/C=C/[C@@H](C)[C@H]1CC[C@H]2[C@@H]3CC=C4C[C@@H](OCCCCCCS[C@@H]5O[C@H](CO)[C@@H](O)[C@H](O)[C@@H]5O)CC[C@]4(C)[C@H]3CC[C@]12C)C(C)C [Example 6, 6-(Stigmasta-5,22-dien-3β-yloxy)hexyl 1-thio-β-D-mannopyranoside]
- Protective Index (log) (Pseudomonas aeruginosa): 2.0 log

Compound: CC(=O)NC(C)C1CCC2C3CC=C4CC(OCCCCCCSC5OC(CO)C(O)C(O)C5O)CCC4(C)C3CCC12C [Example 11, 6-(20S-Acetamido-pregn-5-en-3β-yloxy)hexyl 1-thio-β-D-mannopyranoside]
- Protective Index (log) (Pseudomonas aeruginosa): 3.0 log

Compound: O=C(O)P(=O)(O)O [Foscarnet, trisodium phosphonoformate]
- side effects ([1]; in vivo): serious side effects

Compound: CC(=O)Nc1ccc(C(=O)O)cc1.CC(=O)Nc1ccc(C(=O)O)cc1.CC(=O)Nc1ccc(C(=O)O)cc1.CC(O)CN(C)C.CC(O)CN(C)C.CC(O)CN(C)C.O=c1[nH]cnc2c1ncn2[C@@H]1O[C@H](CO)[C@@H](O)[C@H]1O [Inosine pranobex]
- immune function in ARC or AIDS patients (HIV [2]; human, in vivo): improve immune function in ARC patients

Compound: NC(=O)c1ncn([C@@H]2O[C@H](CO)[C@@H](O)[C@H]2O)n1 [Ribavirin, 1-β-D-ribofuranosyl-1,2,4-triazole-3-carboxamide]
- safety profile ([1]; in vivo): acceptable
- tolerability ([1]; in vivo): well tolerated
- immune function in ARC or AIDS patients (HIV [2]; human, in vivo): improved immune function in AIDS patients
- HIV reproduction / viral replication in patients (HIV [5]): inhibited viral replication

Compound: Cc1ccc(C(=O)Nc2ccc(S(=O)(=O)O)c3cc(S(=O)(=O)O)cc(S(=O)(=O)O)c23)cc1NC(=O)c1cccc(NC(=O)Nc2cccc(C(=O)Nc3cc(C(=O)Nc4ccc(S(=O)(=O)O)c5cc(S(=O)(=O)O)cc(S(=O)(=O)O)c45)ccc3C)c2)c1 [Suramin]
- therapeutic benefit or clinical improvement in AIDS patients (HIV [2]): little or no evidence of clinical improvement or immunologic recovery

Compound: ammonium 21-tungsto-9-antimoniate [HPA-23]
- therapeutic benefit or clinical improvement in AIDS patients (HIV [2]): no therapeutic benefit has been documented in AIDS patients
- growth of HIV [7]: some tendency to check the growth of HIV
- reverse transcriptase inhibition, several retroviruses [8]: Inhibits reverse transcriptase in several retroviruses in vitro

Compound: α-Interferon
- tumor regression in AIDS-related Kaposi's sarcoma (Kaposi's sarcoma): induced tumor regression in some AIDS-related Kaposi's sarcoma cases
- growth of HIV [7]: Checks the growth of HIV in vitro
